Experimental data from patent US20130315940A1, “TREATMENT OF LIVER CANCER” (priority 2010, published 2013).
“Also recorded” adds a separate entry of the source.

Columns and labels:
[1] = system: HuH7 hepatocellular carcinoma cell line; assay: Cell proliferation in culture (cell counting, Promega proliferation assay), HuH7; type: cell-based; conditions: FIG. 13A, HuH7, in the presence of cpg
Text: Using different techniques, manual cell counting, nucleo-counter machine and Promega proliferation assay. Using 10^4 […] 96 wells plate treat some of them with cpg (TLR9 stimulator; […] In Huh7, HepG2 and HUCCT

[2] = system: HUCCT (cholangiocarcinoma); assay: Cholangiocarcinoma implantation in immunodeficient NOD-SCID mice; type: in vivo; conditions: for tumour size: after 50 days, compared with control, chloroquine 25 mg/kg in water supply (p<0.001), IRS 954 50 μl i.p. once weekly (p<0.01)
Procedure: 12 NOD-SCID mice were injected intrahepatically with 5×10^6 cells of HUCCT (cholangiocarcinoma). […] After 50 days a mass was found subcutaneously.

Hepatocellular carcinoma = assay: Chloroquine in a rodent model of HCC (DEN and NMOR); type: in vivo, fisher rats; conditions: for animals that developed evidence of hepatocellular carcinoma: Chloroquine 25 mg/kg/day with DEN and NMOR, weeks 8, 10 and 12 pooled
Procedure: 40 five weeks old male fisher rats were studied. They were divided into 2 groups, Group 1 contained 15 rats who were taking DEN and NMOR alone. […] The rats have been given 100 mg/kg DEN (Diethylnitrosamine) (sigma) once intraperitoneal. Nitosomorpholine (NMOR) was been supplied in water with concentration of 80 ppm.
Liver and blood were collected from the animals after 8, 10 and 12 weeks respectively. […] (Table 2)

HCC = assay: Animal model for HCC: DEN and NMOR treated Fisher rats plus norfloxacin; type: in vivo, Fisher rat; conditions: for fibrosis grade: DEN + NMOR + norfloxacin 20 mg/kg per day by gavage, 14 weeks treatment, end at 16th week
Procedure: We chose a Fisher Rat to be our model. We started with 18 Fisher rats, which were 5 weeks old on the beginning of the experiment. We divided them into 3 groups. They were acclimatised for one week before the experiment at room temperature […] and humidity 60%-65%. The first group used 6 Fisher rats as an HCC model. On the day we started we weighed them and determined the exact dose for each rat.
We started with a single dose of DEN (Diethylnitrosamine™, sigma) using 100 mg/kg as single intraperitoneal injection. Then we put NMOR (Nitrosomorpholine™, Sigma) in the concentration of 80 ppm in the water for 14 weeks. The second group, another 6 Fisher rats, got the same HCC model treatment (DEN and NMOR) plus we gavaged them with norfloxacin in the dose of 20 mg/kg per day. The third group, at the same time, was 6 rats with a control of just plain water. We weighed them every other day and stopped treatment on the 14th week, then left them for two more weeks until the 16th week. We noticed the two groups who took the DEN and NMOR didn't increase in weight at the same rate as the control.
When we started our experiment the rats average weights were 212-241 g in the 1st group, 225-260 g and 221-249 g in the 2nd and 3rd groups respectively. At the end of experiment for the groups that took the carcinogenecic treatment average weights were 328-353 g and 330-372 g respectively. For the control group the average weight was 430-478 g. […] Control group: Smooth bright outer surface of the liver.

| Structure (SMILES) | inhibition of cpg associated proliferation [1] | size of the nodules ([2]; FIG. 11B, compared with controls) | tumour size [2] | tumour size ([2]; listed as chloroquine) | animals that developed evidence of hepatocellular carcinoma (Hepatocellular carcinoma; untreated group 8/9, p<0.0001) | animals that developed evidence of hepatocellular carcinoma (Hepatocellular carcinoma; untreated group 89%) [%] | microscopic and macroscopic appearance of hepatocellular carcinoma (Hepatocellular carcinoma; FIG. 10, DEN and NMOR group administered chloroquine) | HCC in Chloroquine treated (Hepatocellular carcinoma; Week 8th, DEN & NMOR alone 2/3) | HCC in Chloroquine treated (Hepatocellular carcinoma; Week 10th, DEN & NMOR alone 3/3) | HCC in Chloroquine treated (Hepatocellular carcinoma; Week 12th, DEN & NMOR alone 3/3) | fibrosis grade (HCC) | fibrosis grade (HCC; listed as Norfloxacin) | HCC development / tumour grade (HCC; DEN + NMOR + norfloxacin group (2nd group)) | liver nodules (HCC; DEN, NMOR and Norfloxacin group versus DEN and NMOR group) |
| --- | --- | --- | --- | --- | --- | --- | --- | --- | --- | --- | --- | --- | --- | --- |
| CCN(CC)CCCC(C)Nc1ccnc2cc(Cl)ccc12 (centres unmarked) [Chloroquine] | significantly inhibited | significantly smaller | significant reduction | significantly less | 1/10 | 10 | not seen; also recorded: no cancer was apparent either microscopically or macroscopically | 1/4 | 0/3 | 0/3 |  |  |  |  |
| CCn1cc(C(=O)O)c(=O)c2cc(F)c(N3CCNCC3)cc21 [norfloxacin] |  |  |  |  |  |  |  |  |  |  | 0-2 | minimal fibrosis | developed well-differentiated HCC except one | less nodules than the first group |
